# Laboratory results reported in US6525001B1, “Substituted pyrimidine and pyridine herbicides” (Mid-American Commercialization Corporation, priority 1997, dated 2003).
# Key:
# Type in all cases: in vivo
# Design in all cases: key: 0 is no effect; 10 is complete control
# soybean (Glycine max) = assay: Test B pre-/postemergence
# Procedure, shortened: (§1)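 Response scores run from 0, meaning no effect, to 10, meaning complete control, assigned by eye relative to controls twelve to sixteen days after spraying. Treatment was both preemergence on planted seed and postemergence on plants at the 1- to 4-leaf stage.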
# [1] = tested on: bedstraw (Galium aparine); assay: Test B pre-/postemergence; conditions: for Bedstraw plant response rating: Preemergence
# Procedure, shortened: as §1
# rape (Brassica napus) = assay: Test B pre-/postemergence
# Procedure, shortened: as §1
# [2] = tested on: crabgrass (Digitaria sanguinalis); assay: Test B pre-/postemergence; conditions: for Crabgrass plant response rating: Preemergence
# Procedure, shortened: as §1
# [3] = tested on: cocklebur (Xanthium strumarium); assay: Test B pre-/postemergence; conditions: for Cocklebur plant response rating: Preemergence
# Procedure, shortened: as §1
# [4] = tested on: blackgrass (Alopecurus myosuroides); assay: Test B pre-/postemergence; conditions: for Blackgrass plant response rating: Preemergence
# Procedure, shortened: as §1
# [5] = tested on: purple nutsedge (Cyperus rotundus); assay: Test B pre-/postemergence
# Procedure, shortened: as §1
# [6] = tested on: pigweed (Amaranthus retroflexus); assay: Test B pre-/postemergence
# Procedure, shortened: as §1
# [7] = tested on: giant foxtail (Setaria faberii); assay: Test B pre-/postemergence
# Procedure, shortened: as §1
# [8] = tested on: sugar beet (Beta vulgaris); assay: Test B pre-/postemergence
# Procedure, shortened: as §1
# corn (Zea mays) = assay: Test B pre-/postemergence; conditions: for Corn plant response rating: Preemergence
# Procedure, shortened: as §1
# [9] = tested on: momingglory (Ipomoea hederacea); assay: Test B pre-/postemergence
# Procedure, shortened: as §1
# [10] = tested on: wheat (Triticum aestivum); assay: Test B pre-/postemergence
# Procedure, shortened: as §1
# wild oat (Avena fatua) = assay: Test B pre-/postemergence
# Procedure, shortened: as §1
# [11] = tested on: velvetleaf (Abutilon theophrasti); assay: Test B pre-/postemergence
# Procedure, shortened: as §1
# [12] = tested on: broadleaf signalgrass (Brachiaria decumbens); assay: Test B pre-/postemergence; conditions: for B. signalgrass plant response rating: Preemergence
# Procedure, shortened: as §1
# [13] = tested on: duck salad (Heteranthera limosa); assay: Test B flood test
# Procedure, shortened: (§2)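 Each value is a visual injury score relative to controls, with 10 meaning complete control and 0 no effect. Evaluation took place twelve to sixteen days after the 2-leaf-stage plants were treated and kept in the greenhouse.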
# rice (Oryza sativa) = assay: Test B flood test
# Procedure, shortened: as §2
# [14] = tested on: smallflower flatsedge (Cyperus difformis); assay: Test B flood test
# Procedure, shortened: as §2
# [15] = tested on: bamyardgrass (Echinochloa crus-galli); assay: Test B flood test
# Procedure, shortened: as §2
# [16] = Rate 250 g/ha, Postemergence (so in the source)
# [17] = Rate 62 g/ha, Postemergence (flood test)
# [18] = Rate 125 g/ha, Postemergence, flood test
# [19] = Rate 250 g/ha, Postemergence (flood test species)
# [20] = Rate 125 g/ha, Postemergence section (flood test species)
structure (smiles),measurement,setting,value
Cc1cnc(-c2ccc(Cl)cc2F)nc1Cc1cccc(C#N)c1 [Compound 35],"Plant response rating, Soybean","soybean (Glycine max); Rate 62 g/ha, Postemergence",1
same,Soybean plant response rating,"soybean (Glycine max); Rate 62 g/ha, Preemergence",0
same,Soybean plant response rating,"soybean (Glycine max); Rate 125 g/ha, Postemergence",2
same,"Plant response rating, Soybean","soybean (Glycine max); Rate 125 g/ha, Preemergence",0
same,"Plant response rating, Soybean","soybean (Glycine max); Rate 250 g/ha, Postemergence",2
same,"Plant response rating, Soybean",soybean (Glycine max); [16],0
same,"Plant response rating, Bedstraw","[1]; Rate 62 g/ha, Postemergence",6
same,Bedstraw plant response rating,[1]; Rate 62 g/ha,0
same,"Plant response rating, Bedstraw","[1]; Rate 125 g/ha, Postemergence",6
same,Bedstraw plant response rating,[1]; Rate 125 g/ha,0
same,"Plant response rating, Bedstraw","[1]; Rate 250 g/ha, Postemergence",8
same,"Plant response rating, Bedstraw",[1]; [16],1
same,"Plant response rating, Rape","rape (Brassica napus); Rate 62 g/ha, Postemergence",6
same,Rape plant response rating,"rape (Brassica napus); Rate 62 g/ha, Preemergence",0
same,Rape plant response rating,"rape (Brassica napus); Rate 125 g/ha, Postemergence",6
same,Rape plant response rating,"rape (Brassica napus); Rate 125 g/ha, Preemergence",0
same,"Plant response rating, Rape","rape (Brassica napus); Rate 250 g/ha, Postemergence",9
same,"Plant response rating, Rape",rape (Brassica napus); [16],0
same,"Plant response rating, Crabgrass","[2]; Rate 62 g/ha, Postemergence",2
same,Crabgrass plant response rating,[2]; Rate 62 g/ha,0
same,"Plant response rating, Crabgrass","[2]; Rate 125 g/ha, Postemergence",2
same,Crabgrass plant response rating,[2]; Rate 125 g/ha,1
same,"Plant response rating, Crabgrass","[2]; Rate 250 g/ha, Postemergence",2
same,"Plant response rating, Crabgrass",[2]; [16],1
same,"Plant response rating, Cocklebur","[3]; Rate 62 g/ha, Postemergence",2
same,Cocklebur plant response rating,[3]; Rate 62 g/ha,0
same,"Plant response rating, Cocklebur","[3]; Rate 125 g/ha, Postemergence",2
same,Cocklebur plant response rating,[3]; Rate 125 g/ha,0
same,"Plant response rating, Cocklebur","[3]; Rate 250 g/ha, Postemergence",2
same,"Plant response rating, Cocklebur",[3]; [16],0
same,"Plant response rating, Blackgrass","[4]; Rate 62 g/ha, Postemergence",1
same,Blackgrass plant response rating,[4]; Rate 62 g/ha,0
same,"Plant response rating, Blackgrass","[4]; Rate 125 g/ha, Postemergence",1
same,Blackgrass plant response rating,[4]; Rate 125 g/ha,0
same,"Plant response rating, Blackgrass","[4]; Rate 250 g/ha, Postemergence",1
same,"Plant response rating, Blackgrass",[4]; [16],0
same,"Plant response rating, Nutsedge","[5]; Rate 62 g/ha, Postemergence",0
same,Nutsedge plant response rating,"[5]; Rate 62 g/ha, Preemergence",0
same,Nutsedge plant response rating,"[5]; Rate 125 g/ha, Postemergence",0
same,Nutsedge plant response rating,"[5]; Rate 125 g/ha, Preemergence",0
same,"Plant response rating, Nutsedge","[5]; Rate 250 g/ha, Postemergence",0
same,"Plant response rating, Nutsedge",[5]; [16],0
same,"Plant response rating, Redroot pigweed","[6]; Rate 62 g/ha, Postemergence",3
same,Redroot pigweed plant response rating,"[6]; Rate 62 g/ha, Preemergence",0
same,Redroot pigweed plant response rating,"[6]; Rate 125 g/ha, Postemergence",3
same,Redroot pigweed plant response rating,"[6]; Rate 125 g/ha, Preemergence",0
same,"Plant response rating, Redroot pigweed","[6]; Rate 250 g/ha, Postemergence",5
same,"Plant response rating, Redroot pigweed",[6]; [16],5
same,"Plant response rating, Giant foxtail","[7]; Rate 62 g/ha, Postemergence",1
same,Giant foxtail plant response rating,"[7]; Rate 62 g/ha, Preemergence",0
same,Giant foxtail plant response rating,"[7]; Rate 125 g/ha, Postemergence",1
same,Giant foxtail plant response rating,"[7]; Rate 125 g/ha, Preemergence",0
same,"Plant response rating, Giant foxtail","[7]; Rate 250 g/ha, Postemergence",1
same,"Plant response rating, Giant foxtail",[7]; [16],1
same,"Plant response rating, Sugarbeets","[8]; Rate 62 g/ha, Postemergence",9
same,Sugarbeets plant response rating,"[8]; Rate 62 g/ha, Preemergence",0
same,Sugarbeets plant response rating,"[8]; Rate 125 g/ha, Postemergence",10
same,"Plant response rating, Sugarbeets","[8]; Rate 125 g/ha, Preemergence",0
same,"Plant response rating, Sugarbeets","[8]; Rate 250 g/ha, Postemergence",10
same,"Plant response rating, Sugarbeets",[8]; [16],1
same,"Plant response rating, Corn","corn (Zea mays); Rate 62 g/ha, Postemergence",1
same,Corn plant response rating,corn (Zea mays); Rate 62 g/ha,0
same,"Plant response rating, Corn","corn (Zea mays); Rate 125 g/ha, Postemergence",1
same,Corn plant response rating,corn (Zea mays); Rate 125 g/ha,0
same,"Plant response rating, Corn","corn (Zea mays); Rate 250 g/ha, Postemergence",1
same,"Plant response rating, Corn",corn (Zea mays); [16],0
same,"Plant response rating, Morningglory","[9]; Rate 62 g/ha, Postemergence",1
same,Morningglory plant response rating,"[9]; Rate 62 g/ha, Preemergence",0
same,Morningglory plant response rating,"[9]; Rate 125 g/ha, Postemergence",1
same,Morningglory plant response rating,"[9]; Rate 125 g/ha, Preemergence",0
same,"Plant response rating, Morningglory","[9]; Rate 250 g/ha, Postemergence",1
same,"Plant response rating, Morningglory",[9]; [16],0
same,Wheat plant response rating,"[10]; Rate 62 g/ha, Postemergence",0
same,Wheat plant response rating,"[10]; Rate 62 g/ha, Preemergence",0
same,Wheat plant response rating,"[10]; Rate 125 g/ha, Postemergence",0
same,"Plant response rating, Wheat","[10]; Rate 125 g/ha, Preemergence",0
same,"Plant response rating, Wheat","[10]; Rate 250 g/ha, Postemergence",1
same,"Plant response rating, Wheat",[10]; [16],0
same,Wild oats plant response rating,"wild oat (Avena fatua); Rate 62 g/ha, Postemergence",1
same,Wild oats plant response rating,"wild oat (Avena fatua); Rate 62 g/ha, Preemergence",0
same,Wild oats plant response rating,"wild oat (Avena fatua); Rate 125 g/ha, Postemergence",1
same,"Plant response rating, Wild oats","wild oat (Avena fatua); Rate 125 g/ha, Preemergence",0
same,"Plant response rating, Wild oats","wild oat (Avena fatua); Rate 250 g/ha, Postemergence",2
same,"Plant response rating, Wild oats",wild oat (Avena fatua); [16],1
same,"Plant response rating, Velvetleaf","[11]; Rate 62 g/ha, Postemergence",1
same,Velvetleaf plant response rating,"[11]; Rate 62 g/ha, Preemergence",0
same,Velvetleaf plant response rating,"[11]; Rate 125 g/ha, Postemergence",1
same,"Plant response rating, Velvetleaf","[11]; Rate 125 g/ha, Preemergence",0
same,"Plant response rating, Velvetleaf","[11]; Rate 250 g/ha, Postemergence",1
same,"Plant response rating, Velvetleaf",[11]; [16],1
same,"Plant response rating, B. signalgrass","[12]; Rate 62 g/ha, Postemergence",1
same,B. signalgrass plant response rating,[12]; Rate 62 g/ha,0
same,"Plant response rating, B. signalgrass","[12]; Rate 125 g/ha, Postemergence",1
same,B. signalgrass plant response rating,[12]; Rate 125 g/ha,0
same,"Plant response rating, B. signalgrass","[12]; Rate 250 g/ha, Postemergence",1
same,"Plant response rating, B. signalgrass","[12]; Rate 250 g/ha, Postemergence as printed in head r139 (second section for compounds 26-50)",0
same,"Plant response rating, Ducksalad",[13]; [17],0
same,"Plant response rating, Ducksalad",[13]; [18],0
same,"Plant response rating, Ducksalad",[13]; [19],1
same,"Plant response rating, Rice",rice (Oryza sativa); [17],0
same,Rice plant response rating,rice (Oryza sativa); [20],1
same,"Plant response rating, Rice",rice (Oryza sativa); [19],1
same,"Plant response rating, S. Flatsedge",[14]; [17],1
same,S. Flatsedge plant response rating,[14]; [20],2
same,"Plant response rating, S. Flatsedge",[14]; [19],2
same,"Plant response rating, Barnyardgrass",[15]; [17],0
same,"Plant response rating, Barnyardgrass",[15]; [18],2
same,"Plant response rating, Barnyardgrass",[15]; [19],2
